By IC50 is commonly meant the midpoint of a concentration-inhibition curve. A higher IC50 goes with weaker potency.

These results are taken from paper PMC9822769, “The Strange Case: The Unsymmetric Cisplatin-Based Pt(IV) Prodrug [Pt(CH3COO)Cl2(NH3)2(OH)] Exhibits Higher Cytotoxic Activity with respect to Its Symmetric Congeners due to Carrier-Mediated Cellular Uptake” (Bioinorganic Chemistry and Applications, 2022).

Common to all, as to format: cell-based, human
For assay [1], the system named is MCF-7. Description: Resazurin reduction cell viability assay, MCF-7. The note with it: 72 h of treatment; mean ± sd. The protocol:
(§1) The compounds under investigation were tested on a panel of commercial human cancer cell lines: ovarian endometrioid adenocarcinoma A2780 (ICLC HTL98008), its cisplatin-resistant variant A2780cisR (ECACC 93112517), colon carcinoma HCT 116 (ECACC 91091005), breast invasive ductal carcinoma MCF7 (ECACC 86012803), embryonal carcinoma NTERA-2 clone D1 (also known as NT2/D1, ICLC HTL97025), and lung adenocarcinoma A549 (ICLC HTL03001). Furthermore, a cell line derived from the pleural effusion of a patient with untreated malignant pleural mesothelioma (MPM) was added to the panel, namely, MM98 (sarcomatoid phenotype). Commercial cells were purchased from the European Collection of Authenticated Cell Cultures (ECACC, UK) or the Interlab Cell Line Collection (ICLC, Genoa, Italy), while the MM98 cell line was obtained from the Pathology Unit of the National Hospital of Alessandria (Italy).
(§2) The following media were used to grow the cells: RPMI 1640 (for A2780, A2780cisR, NT2/D1, and A549 cells), DMEM (for MCF7 cells), DMEM supplemented with nonessential amino acids (for MM98 cells), and McCoy's 5A (for HCT 116 cells). All media contained L-glutamine (2 mM) and were added with penicillin (100 IU·mL^−1), streptomycin (100 mg·L^−1), and 10% heat inactivated FBS. To maintain resistance in A2780cisR cells, cisplatin (1 μM) was added to the medium every two passages.
(§3) Continuous treatments (CT) were carried out at 37°C in a humidified chamber with 5% CO2. Cisplatin was dissolved in a 0.9% w/v NaCl aqueous solution and brought to pH = 3 with HCl (final stock concentration 1 mM). The Pt(IV) Complexes 1–3 were dissolved in milliQ water (final stock concentration 5 mM) and stored at −20°C. The stock concentration was confirmed with inductively coupled plasma-mass spectrometry (ICP-MS) measurements. The mother solutions were diluted in a complete medium to the required concentration.
(§4) To assess the growth inhibition of the compounds under investigation, a cell viability test (i.e., the resazurin reduction assay) was used. […] At the end of the treatment (72 h), viability was evaluated with 100 μg·mL^−1 resazurin (Acros Chemicals, France) in a fresh medium for 1 h at 37°C, and the amount of the reduced product, resorufin, was measured by fluorescence (excitation λ = 535 nm, emission λ = 595 nm) with a Tecan Infinite F200Pro plate reader (Tecan, Austria). In each experiment, cells were challenged with drug candidates at different concentrations, and the final data were calculated from at least three replicates of the same experiment performed in triplicate. The fluorescence of 8 wells containing a medium without cells was used as a blank. Fluorescence data were normalized to 100% cell viability for nontreated cells. […]
(In general: Resazurin is reduced to fluorescent resorufin, in cell work by metabolically active cells.)

Assay [2] deals with A2780cisR. The experiment in a line: Resazurin reduction cell viability assay, A2780cisR. The note with it: for resistance factor, RF = IC50 A2780cisR/IC50 A2780: 72 h, rounded to the nearest unity; for IC50: 72 h of treatment, cisplatin-resistant, mean ± sd. The procedure:
as §1, §2, §3
To assess the growth inhibition of the compounds under investigation, a cell viability test (i.e., the resazurin reduction assay) was used. In brief, 2–5 × 10^3 cells per well (depending on the cell line) were seeded in black sterile tissue culture-treated 96-well plates. At the end of the treatment (72 h), viability was evaluated with 100 μg·mL^−1 resazurin (Acros Chemicals, France) in a fresh medium for 1 h at 37°C, and the amount of the reduced product, resorufin, was measured by fluorescence (excitation λ = 535 nm, emission λ = 595 nm) with a Tecan Infinite F200Pro plate reader (Tecan, Austria). In each experiment, cells were challenged with drug candidates at different concentrations, and the final data were calculated from at least three replicates of the same experiment performed in triplicate. The fluorescence of 8 wells containing a medium without cells was used as a blank. Fluorescence data were normalized to 100% cell viability for nontreated cells. The half-inhibiting concentration (IC50), defined as the concentration of the drug that reduces cell viability by 50%, was obtained from the dose-response sigmoid using Origin Pro (version 8, Microcal Software Inc., Northampton, MA, USA).

Assay [3] deals with HCT 116. The experiment in a line: Resazurin reduction cell viability assay, HCT 116. Conditions: 72 h of treatment; mean ± sd. The procedure: as §1, §2, §3, §4
For assay [4], the system named is A2780 cells. The experiment in a line: Cellular Pt accumulation in A2780 cells in the presence of uptake inhibitors. Conditions: A2780, 1 h, 10 μM; for effect of NaN3/2DG pretreatment on cell accumulation (AR): NaN3 and 2DG both 25 mM. The procedure: A2780 and A2780cisR cells were seeded in 10 mm Petri dishes and challenged with complexes under investigation (10 μM) in a complete medium for 4 h. At the end of the exposure, cells were washed three times with PBS, detached from Petri dishes using 0.05% trypsin 1x + 2% EDTA (HyClone, Thermo Fisher), and harvested in a completely fresh medium. An automatic cell counting device (Countess®, Life Technologies) was used to measure the number and mean diameter of each cell necessary to calculate the mean cellular (spherical) volume.
For the analysis of Pt accumulation, cells were transferred to a borosilicate glass tube and centrifuged at 1100 rpm for 5 min at room temperature. The supernatant was carefully removed by aspiration, while approximately, 200 μL of the supernatant was left to limit cell loss. Cellular pellets were stored at −80°C until mineralization.
The determination of the platinum content was performed by ICP-MS (Thermo Optek X Series 2). Mineralization was carried out by adding 70% w/w HNO3 to each sample (after defrosting), followed by incubation for 1 h at 60°C in an ultrasonic bath. Before the ICP-MS measurement, HNO3 was diluted to a final concentration of 1%. The instrument settings were optimized to produce the highest platinum sensitivity, and the most abundant isotopes of Pt and In (used as an internal standard) were quantified at m/z 195 and 115, respectively.
The quantity of Pt found in cells and normalized on cell number (cellular Pt accumulation) was expressed as ng of Pt per 10^6 cells. The mean cellular volume, calculated from the actual mean cell diameter measured for each sample (about 12 μm), was used to obtain the volume of 10^6 cells and, finally, the intracellular Pt concentration. At treatment time zero, 100 μL of the medium was taken from each sample to verify the extracellular Pt concentration. The ratio between intracellular and the actual extracellular concentrations is defined as the accumulation ratio, AR [70]. The Pt content in the control experiment, which characterizes any possible Pt contamination during the overall process, was statistically insignificant with respect to the cellular Pt accumulated during treatment, even in the case of A2780cisR.
Experiments with the inhibitors were carried out at 37°C as follows: (i) NaN3 + 2-deoxy-D-glucose (2DG): preincubation for 30 min in PBS with 25 mM NaN3 and 25 mM 2DG, followed by a 10 μM CT with the Pt compounds in Earle's Balanced Salt Solution (EBSS) for 1 h; (ii) cimetidine (CMT): coincubation with 1.5 mM CMT and 10 μM Pt compounds in EBSS for 1 h; (iii) 1-methyl-4-phenylpyridin-1-ium (MPP^+): coincubation with 2.0 mM MPP^+ and 10 μM Pt compounds in EBSS for 1 h; (iv) cytochalasin D (CTD): preincubation for 30 min in EBSS with 10 μM CTD, followed by a 10 μM CT with the Pt compounds in EBSS for 1 h; (v) O-benzylserine (BS): coincubation with 1.0 mM BS and 10 μM Pt compounds in EBSS for 4 h; (vi) ouabain (OUA): preincubation for 1 h in EBSS with 1 mM OUA, followed by a 10 μM CT with the Pt compounds in EBSS for 4 h; (vii) tetraethylammonium chloride (TEA): […] in EBSS for 4 h. In the experiments at low temperature, A2780 cells were preincubated for 2 h at 4°C, followed by CT with each Pt compound (10 μM) for 4 h. In all cases, at the end of the CT, the cells were manipulated as described in the previous paragraphs.

Regarding `N.N.[Cl][Pt][Cl]` [Cisplatin, (SP-4-2)-diamminedichloridoplatinum(II)], the IC50 in assay [1] was 6.46 ± 0.91 µM; in assay [2], 6.22 ± 1.02 µM; in assay [3] it was 2.3 ± 0.3 µM. Also, the “resistance factor, RF = IC50 A2780cisR/IC50 A2780” value (shortened to “resistance factor”) in assay [2] came to 13.
`N.N.[OH][Pt]([OH])([Cl])[Cl]` [Complex 1, (OC-6-33)-diamminedichloridodihydroxidoplatinum(IV)]: the IC50 in assay [1] was determined as 78.1 ± 5.6 µM. Besides, in assay [4], the “effect of OCT inhibitors (TEA, MPP+, CMT) on AR” value is recorded as “not significantly affected” and the “effect of NaN3/2DG pretreatment on cell accumulation (AR)” value (shortened to “effect of NaN3/2DG pretreatment”) was “without appreciably affecting”. Moreover, in assay [2], the “resistance factor” value is listed as 14 and the concentration for half-maximal inhibition (IC50) was determined as 52.1 ± 3.48 µM. In assay [3], this compound gave an IC50 of 22.9 ± 3.89 µM.
Consider `CC(=O)[O][Pt]([OH])([Cl])[Cl].N.N` [Complex 2, (OC-6-44)-acetatodiamminedichloridohydroxidoplatinum(IV)], for which the results for the half-maximal inhibitory concentration (IC50) in assay [1], in assay [2] and in assay [3] were 8.86 ± 3.45 µM, 1.02 ± 0.68 µM and 1.46 ± 0.02 µM, respectively. Moreover, the “effect of O-benzylserine (BS) on cellular accumulation” value in assay [4] (BS cotreatment 1 mM) is on record as “did not cause a significant effect”. In addition, the “effect of cimetidine (CMT) on cell accumulation” value in assay [4] (CMT cotreatment 1.5 mM) was “inhibited”. Besides, in assay [4] (CTD pretreatment 10 μM), the “effect of cytochalasin D (CTD) on Pt accumulation” value is “did not cause any decrease”. For the same compound, the “effect of MPP+ on cell accumulation” value in assay [4] (MPP+ cotreatment 2 mM) is given as “inhibited”. Besides, the “effect of NaN3/2DG pretreatment” value in assay [4] is on record as “statistically reduced”. For the same compound, the “effect of ouabain (OUA) on cellular accumulation” value in assay [4] (OUA pretreatment 1 mM) is “did not cause a significant effect”. Further, the “effect of tetraethylammonium (TEA) on uptake” value in assay [4] (TEA pretreatment 20 mg·mL^−1) is “evident (albeit statistically not significant) decrease”. Besides, in assay [2], the “resistance factor” value is given as 6.
Turning to `CC(=O)[O][Pt]([NH2])([NH2])([Cl])([Cl])[O]C(C)=O` [Complex 3, (OC-6-33)-diamminedichloridodiacetatoplatinum(IV)], the IC50 in assay [1] is over 100 µM; in assay [2] it was over 100 µM; in assay [3], 55.3 ± 1.69 µM. Besides, the “effect of OCT inhibitors (TEA, MPP+, CMT) on AR” value in assay [4] is reported as “not significantly affected”. For the same compound, in assay [4], the “effect of NaN3/2DG pretreatment” value is recorded as “without appreciably affecting”.
